Results on 1 molecule are retold here after paper PMC2063322, “Phase I trial and pharmacokinetics of the tubulin inhibitor 1069C85--a synthetic agent binding at the colchicine site designed to overcome multidrug resistance” (British Journal of Cancer, 1997).

SMILES strings stand for the structures.

Data set [1] deals with rodents. Details: method as in data on file, Cancer Research Campaign, 1993. The following applies: ref data on file, Cancer Research Campaign, 1993; cited from earlier work.
Data set [2] can be described thus: Protein binding in human plasma (Amicon membrane centrifugation). As to conditions: 25 C. As for the experimental part: British Joumal of Cancer (1997) 75(4), 608-613 ? […] A phase I study was performed using a single oral dose every 3 weeks, administered as a suspension reconstituted in 0.1% Tween 80 and 0.9% saline. The starting dose was 2.8 mg m-2, and dose doubling was permitted until the area under curve (AUC) was ?40% of that at the mouse LD10; thereafter, a modified Fibonacci scheme was used. […] Keywords: tubulin; multidrug resistance; neurotoxicity The tubulin-binding agent 1069C85 was developed from a struc- ture activity investigation of tubulin inhibitors binding at the colchicine site on tubulin. […] No studies were performed using human tumour xenografts. […] METHODS Formulation and drug administration A formulation was developed at the Cancer Research Campaign Formulation Unit. The drug was dispensed into vials as a dry powder and reconstituted as a fine suspension by administration of 0.9% saline containing 0.1% Tween 80 (polysorbate) with vigorous mixing. Immediately before oral administration, the drug suspension was mixed with orange juice both to disguise any possible unpleasant taste and to help ensure complete ingestion.

Data set [3] has as its system human tumour cell lines. The following applies: ref Raynaud et al, 1994; cited from earlier work.
The test system of data set [4] is dogs. Details: method as in Data on file, Glaxo/Wellcome, 1990. The following applies: 20 mg m-2; ref Data on file, Glaxo/Wellcome, 1990; cited from earlier work.

Consider `COC(=O)Nc1cn2nc(OCc3cc(OC)c(OC)c(OC)c3)ccc2n1` [1069C85], for which, in data set [1], the dose limiting toxicities result was “myelosuppression and gastrointestinal damage”. The molecule further showed a Protein binding in data set [2] of over 99%. The “activity in resistant human tumour cell lines” value in data set [3] is “confirmed these findings”. Also, in data set [4], the “toxicity observed in dogs” value is given as “fatal toxicity”.
